# Assay results published in patent publication US8329717B2, “Pyrimidine derivatives and their use for controlling undesired plant growth” (Bayer Cropscience AG, priority 2008, dated 2012).
# Legend:
# PHBPU = experiment: Post-emergence herbicidal effect; type: in vivo; conditions: Dosage 320 g/ha, one-leaf stage, visual scoring after ca. 3 weeks vs untreated controls, 100% = plants have died
# Method: (§1) 2. Post-Emergence Herbicidal Effect and Crop Plant Compatibility Seeds of monocotyledonous or dicotyledonous weed plants or crop plants are planted in wood-fiber pots in sandy loam, covered with earth and grown in a greenhouse under good growth conditions. 2 to 3 weeks after sowing, the test plants are treated in the one-leaf stage. The compounds according to the invention, formulated in the form of wettable powders (WP) or as emulsion concentrates (EC), are then sprayed onto the green plant parts as aqueous suspension or emulsion at a water application rate of 600 to 800 l/ha (converted) with the addition of 0.2% of wetting agent. The dosage of the compounds according to the invention is given in grams per hectare. After ca. 3 weeks' standing time of the test plants in the greenhouse under optimum growth conditions, the effect of the preparations is scored visually in comparison with untreated controls (herbicidal effect in percent (%): 100% effect=plants have died, 0% effect=as control plants).
# Viola tricolor [1] = experiment: Post-emergence herbicidal effect; type: in vivo; conditions: Dosage 320 g/ha, one-leaf stage, visual scoring after ca. 3 weeks vs untreated controls, 100% = plants have died
# Method: as §1, with “The following abbreviations are used in the tables below: [table] 2.” for “2.”
# Alopecurus myosuroides [2] = experiment: Post-emergence herbicidal effect; type: in vivo; conditions: Dosage 320 g/ha, one-leaf stage, visual scoring after ca. 3 weeks vs untreated controls, 100% = plants have died
# Method: as §1, with “The following abbreviations are used in the tables below: [table] 2.” for “2.”
# Setaria viridis [3] = experiment: Post-emergence herbicidal effect; type: in vivo; conditions: Dosage 320 g/ha, one-leaf stage, visual scoring after ca. 3 weeks vs untreated controls, 100% = plants have died
# Method: as §1, with “The following abbreviations are used in the tables below: [table] 2.” for “2.”
# Veronica persica [4] = experiment: Post-emergence herbicidal effect; type: in vivo; conditions: Dosage 320 g/ha, one-leaf stage, visual scoring after ca. 3 weeks vs untreated controls, 100% = plants have died
# Method: as §1, with “The following abbreviations are used in the tables below: [table] 2.” for “2.”
# Amaranthus retroflexus [5] = experiment: Post-emergence herbicidal effect; type: in vivo; conditions: Dosage 320 g/ha, one-leaf stage, visual scoring after ca. 3 weeks vs untreated controls, 100% = plants have died
# Method: as §1, with “The following abbreviations are used in the tables below: [table] 2.” for “2.”
# Matricaria inodora [6] = experiment: Post-emergence herbicidal effect; type: in vivo; conditions: Dosage 320 g/ha, one-leaf stage, visual scoring after ca. 3 weeks vs untreated controls, 100% = plants have died
# Method: as §1, with “The following abbreviations are used in the tables below: [table] 2.” for “2.”
# Lolium multiflorum [7] = experiment: Post-emergence herbicidal effect; type: in vivo; conditions: Dosage 320 g/ha, one-leaf stage, visual scoring after ca. 3 weeks vs untreated controls, 100% = plants have died
# Method: as §1, with “The following abbreviations are used in the tables below: [table] 2.” for “2.”
# Abutilon theophrasti [8] = experiment: Post-emergence herbicidal effect; type: in vivo; conditions: Dosage 320 g/ha, one-leaf stage, visual scoring after ca. 3 weeks vs untreated controls, 100% = plants have died
# Method: as §1, with “The following abbreviations are used in the tables below: [table] 2.” for “2.”
# Stellaria media [9] = experiment: Post-emergence herbicidal effect; type: in vivo; conditions: Dosage 320 g/ha, one-leaf stage, visual scoring after ca. 3 weeks vs untreated controls, 100% = plants have died
# Method: as §1, with “The following abbreviations are used in the tables below: [table] 2.” for “2.”
# Echinochloa crus-galli [10] = experiment: Post-emergence herbicidal effect; type: in vivo; conditions: Dosage 320 g/ha, one-leaf stage, visual scoring after ca. 3 weeks vs untreated controls, 100% = plants have died
# Method: as §1, with “The following abbreviations are used in the tables below: [table] 2.” for “2.”
# Alopecurus myosuroides [11] = experiment: Pre-emergence herbicidal effect; type: in vivo; conditions: Dosage 320 g/ha, visual scoring after 3 weeks vs untreated controls, 100% = plants have died
# Method in brief: (§2)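 Seeds in sandy loam; WP or EC formulations sprayed onto covering soil at 600 to 800 l/ha water with 0.2% wetting agent, dosage in g/ha. Greenhouse-grown, visually scored at 3 weeks against untreated controls (100% = dead, 0% = as control).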
# Setaria viridis [12] = experiment: Pre-emergence herbicidal effect; type: in vivo; conditions: Dosage 320 g/ha, visual scoring after 3 weeks vs untreated controls, 100% = plants have died
# Method in brief: as §2
# Avena fatua [13] = experiment: Pre-emergence herbicidal effect; type: in vivo; conditions: Dosage 320 g/ha, visual scoring after 3 weeks vs untreated controls, 100% = plants have died
# Method in brief: as §2
# Veronica persica [14] = experiment: Pre-emergence herbicidal effect; type: in vivo; conditions: Dosage 320 g/ha, visual scoring after 3 weeks vs untreated controls, 100% = plants have died
# Method in brief: as §2
# Amaranthus retroflexus [15] = experiment: Pre-emergence herbicidal effect; type: in vivo; conditions: Dosage 320 g/ha, visual scoring after 3 weeks vs untreated controls, 100% = plants have died
# Method in brief: as §2
# Matricaria inodora [16] = experiment: Pre-emergence herbicidal effect; type: in vivo; conditions: Dosage 320 g/ha, visual scoring after 3 weeks vs untreated controls, 100% = plants have died
# Method in brief: as §2
# Lolium multiflorum [17] = experiment: Pre-emergence herbicidal effect; type: in vivo; conditions: Dosage 320 g/ha, visual scoring after 3 weeks vs untreated controls, 100% = plants have died
# Method in brief: as §2
# Abutilon theophrasti [18] = experiment: Pre-emergence herbicidal effect; type: in vivo; conditions: Dosage 320 g/ha, visual scoring after 3 weeks vs untreated controls, 100% = plants have died
# Method in brief: as §2
# Cyperus esculentus = experiment: Pre-emergence herbicidal effect; type: in vivo; conditions: Dosage 320 g/ha, visual scoring after 3 weeks vs untreated controls, 100% = plants have died
# Method in brief: as §2
# Stellaria media [19] = experiment: Pre-emergence herbicidal effect; type: in vivo; conditions: Dosage 320 g/ha, visual scoring after 3 weeks vs untreated controls, 100% = plants have died
# Method in brief: as §2
# Echinochloa crus-galli [20] = experiment: Pre-emergence herbicidal effect; type: in vivo; conditions: Dosage 320 g/ha, visual scoring after 3 weeks vs untreated controls, 100% = plants have died
# Method in brief: as §2
# Polygonum convolvulus [21] = experiment: Post-emergence herbicidal effect; type: in vivo; conditions: Dosage 320 g/ha, one-leaf stage, visual scoring after ca. 3 weeks vs untreated controls, 100% = plants have died
# Method: as §1, with “The following abbreviations are used in the tables below: [table] 2.” for “2.”
# Viola tricolor [22] = experiment: Pre-emergence herbicidal effect; type: in vivo; conditions: Dosage 320 g/ha, visual scoring after 3 weeks vs untreated controls, 100% = plants have died
# Method in brief: as §2
# Polygonum convolvulus [23] = experiment: Pre-emergence herbicidal effect; type: in vivo; conditions: Dosage 320 g/ha, visual scoring after 3 weeks vs untreated controls, 100% = plants have died
# Method in brief: as §2
# Avena fatua [24] = experiment: Post-emergence herbicidal effect; type: in vivo; conditions: Dosage 320 g/ha, one-leaf stage, visual scoring after ca. 3 weeks vs untreated controls, 100% = plants have died
# Method: as §1, with “The following abbreviations are used in the tables below: [table] 2.” for “2.”
# [25] = logp (HCOOH), chemicophysical data; conditions: for chromatographic logP: HCOOH (formic acid)
SMILES,Post-emergence herbicidal effect PHBPU (PHBPU) [%],Post-emergence herbicidal effect VIOTR (Viola tricolor [1]) [%],Post-emergence herbicidal effect ALOMY (Alopecurus myosuroides [2]) [%],Post-emergence herbicidal effect SETVI (Setaria viridis [3]) [%],Post-emergence herbicidal effect VERPE (Veronica persica [4]) [%],Post-emergence herbicidal effect AMARE (Amaranthus retroflexus [5]) [%],Post-emergence herbicidal effect LOLMU (Lolium multiflorum [7]) [%],Post-emergence herbicidal effect STEME (Stellaria media [9]) [%],Post-emergence herbicidal effect ECHCG (Echinochloa crus-galli [10]) [%],Pre-emergence herbicidal effect ALOMY (Alopecurus myosuroides [11]) [%],Pre-emergence herbicidal effect SETVI (Setaria viridis [12]) [%],Pre-emergence herbicidal effect AVEFA (Avena fatua [13]) [%],Pre-emergence herbicidal effect VERPE (Veronica persica [14]) [%],Pre-emergence herbicidal effect AMARE (Amaranthus retroflexus [15]) [%],Pre-emergence herbicidal effect MATIN (Matricaria inodora [16]) [%],Pre-emergence herbicidal effect LOLMU (Lolium multiflorum [17]) [%],Pre-emergence herbicidal effect STEME (Stellaria media [19]) [%],Pre-emergence herbicidal effect ECHCG (Echinochloa crus-galli [20]) [%],Pre-emergence herbicidal effect VIOTR (Viola tricolor [22]) [%],Pre-emergence herbicidal effect POLCO (Polygonum convolvulus [23]) [%],further results
Cc1nc(N[C@@H]2CCCc3ccccc32)nc(N)c1C#N [Example 1.18],80,85,85,90,83,85,87,93,87,100,100,90,100,100,100,100,100,100,–,–,Post-emergence herbicidal effect MATIN (Matricaria inodora [6]): 80%; Post-emergence herbicidal effect ABUTH (Abutilon theophrasti [8]): 85%; Pre-emergence herbicidal effect ABUTH (Abutilon theophrasti [18]): 100%; Pre-emergence herbicidal effect CYPES (Cyperus esculentus): 80%
Cc1nc(N[C@@H]2CCOc3c(F)cccc32)nc(N)c1C#N [Example 1.26],90,85,85,–,95,85,90,90,90,100,100,90,100,100,100,100,100,100,100,90,Post-emergence herbicidal effect MATIN (Matricaria inodora [6]): 80%; Post-emergence herbicidal effect POLCO (Polygonum convolvulus [21]): 80%; Post-emergence herbicidal effect ABUTH (Abutilon theophrasti [8]): 80%; Pre-emergence herbicidal effect ABUTH (Abutilon theophrasti [18]): 80%
"N#Cc1cnc(N[C@@H]2CCCc3ccccc32)nc1N [Example 1.30, 4-Amino-2-[(1R)-1,2,3,4-tetrahydronaphthalen-1-ylamino]pyrimidine-5-carbonitrile]",–,–,95,95,90,93,100,80,100,100,100,100,100,100,100,100,100,100,100,100,Post-emergence herbicidal effect AVEFA (Avena fatua [24]): 100%; Post-emergence herbicidal effect MATIN (Matricaria inodora [6]): 80%; Post-emergence herbicidal effect POLCO (Polygonum convolvulus [21]): 80%; chromatographic logP [25]: 1.92
Cc1ccc2c(c1)[C@H](Nc1ncc(F)c(N)n1)[C@@H](C)C2 [Example 1.56],90,–,85,80,90,80,93,80,90,100,100,100,100,100,100,100,100,100,100,95,"Post-emergence herbicidal effect AVEFA (Avena fatua [24]): 80%; Pre-emergence herbicidal effect CYPES (Cyperus esculentus): 80%; logp (HCOOH) ([25]; HCOOH): wax-like; logp (HCOOH): 1.20; 1H-NMR (CDCl3, 400 MHZ, δ in ppm): 1.25 (d, 3H, CH3);"
"Cc1ccc2c(c1)[C@H](Nc1ncc(Br)c(N)n1)[C@@H](C)C2 [Example 1.67, 5-Bromo-N2-[(1R,2S)-2,6-dimethyl-2,3-dihydro-1H-inden-1-yl]pyrimidine-2,4-diamine]",93,80,85,87,85,90,87,90,95,95,100,80,100,100,100,95,100,100,100,100,Post-emergence herbicidal effect MATIN (Matricaria inodora [6]): 80%; Post-emergence herbicidal effect POLCO (Polygonum convolvulus [21]): 85%; Post-emergence herbicidal effect ABUTH (Abutilon theophrasti [8]): 90%; Pre-emergence herbicidal effect ABUTH (Abutilon theophrasti [18]): 90%; chromatographic logP [25]: 1.3
CC[C@H]1Cc2ccccc2[C@@H]1Nc1ncc(C#N)c(N)n1 [Example 1.129],–,80,90,90,90,90,90,90,100,100,100,90,100,100,100,100,100,100,100,100,Post-emergence herbicidal effect AVEFA (Avena fatua [24]): 80%; Post-emergence herbicidal effect POLCO (Polygonum convolvulus [21]): 90%; Post-emergence herbicidal effect ABUTH (Abutilon theophrasti [8]): 90%; Pre-emergence herbicidal effect ABUTH (Abutilon theophrasti [18]): 80%; Pre-emergence herbicidal effect CYPES (Cyperus esculentus): 80%
